Experimental findings from patent US8389503B2, “Steroidal antitubercular compounds” (priority 2011, dated 2013) are described below.

The structures appear in SMILES notation. ≈ marks a conversion by molar mass, not a printed value.

The test system of data set [1] is Mycobacterium tuberculosis H37Rv (ATCC 27294). The experiment in a line: Primary screen (dose response), Microplate Alamar Blue Assay (MABA), Level-I antituberculosis assay. Conditions: M. tuberculosis H37Rv, BACTEC 12B medium, concentration reducing fluorescence 90% relative to controls. It is filed as cell-based. As to the method: Primary Screen (Dose Response): Determination of a 90% Inhibitory Concentration (IC90). The initial screen is conducted against Mycobacterium tuberculosis H37Rv (ATCC 27294) in BACTEC 12B medium using the Microplate Alamar Blue Assay (MABA). Compounds are tested in ten 2-fold dilutions, typically from 100 μg/mL to 0.19 μg/mL. The IC90 is defined as the concentration effecting a reduction in fluorescence of 90% relative to controls. This value is determined from the dose-response curve using a curve-fitting program. Any IC90 value of ≦10 μg/mL is considered “Active” for antitubercular activity.

The test system of data set [2] is VERO cells.

For `CCCCCCOC(=O)c1ccc(OC2CC[C@@]3(C)C(=CC[C@H]4[C@@H]5CC[C@H]([C@H](C)C=C[C@@H](CC)C(C)C)[C@@]5(C)CC[C@@H]43)C2)cc1` (some centres unmarked) [Compound I, n-hexyl-p-stigmasteryloxy-benzoate], the “IC90 (90% inhibitory concentration)” value in data set [1] was determined as 6.25 µg/mL (≈ 10.1 µM). Also, the “CC50 (mammalian cell cytotoxicity)” value in data set [2] is 79.59 µg/mL (≈ 129 µM).
